US7674899B2, “Dimeric azacyclic compounds and their use” (Neurosearch A/S, priority 2004, dated 2010)
Counter-ions that a name gives are not always drawn.

Molecular target: T1, α7-subtype of nicotinic receptors (Rattus norvegicus, UniProt Q05941)
T1 construct: Cerebral cortices from male Wistar rats (150-250 g) are homogenised; from tissue; host or cells: rat cerebral cortex membrane homogenate
Assay: In vitro inhibition of 3H-α-bungarotoxine binding in rat brain
Details: rat cerebral cortex homogenate; 2 nM 3H-α-bungarotoxine; 2 hours at 37° C.

T1 sequence (Q05941 23-502): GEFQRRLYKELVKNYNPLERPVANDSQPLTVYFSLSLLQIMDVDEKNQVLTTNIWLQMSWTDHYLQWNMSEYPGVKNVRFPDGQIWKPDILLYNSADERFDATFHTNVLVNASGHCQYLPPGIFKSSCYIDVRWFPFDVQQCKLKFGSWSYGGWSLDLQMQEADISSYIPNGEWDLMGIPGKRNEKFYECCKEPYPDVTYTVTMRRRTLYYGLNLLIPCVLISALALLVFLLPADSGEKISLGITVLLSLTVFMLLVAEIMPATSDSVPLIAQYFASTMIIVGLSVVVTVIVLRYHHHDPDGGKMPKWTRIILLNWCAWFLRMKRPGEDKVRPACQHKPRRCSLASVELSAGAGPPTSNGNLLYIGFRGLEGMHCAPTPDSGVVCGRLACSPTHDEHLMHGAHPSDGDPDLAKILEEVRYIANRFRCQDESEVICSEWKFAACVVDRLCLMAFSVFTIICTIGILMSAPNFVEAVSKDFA

Question: With `c1nc(OC2CN3CCC2CC3)sc1-c1cnc(OC2CN3CCC2CC3)s1` (racemic) [Compound A1, 2,2′-Bis-((±)-1-aza-bicyclo[2.2.2]oct-3-yloxy)-[5,5′]-bithiazolyl fumaric acid salt] as the compound, how does the IC50 read?
Answer: 200 nM
